The subject of assay [1] is Parkin phosphorylation at Ser378. Briefly: Parkin Ser378 phosphorylation in cells, IP and immunoblot with pS378 antibody. The format is cell-based. On the procedure:
FIGS. 9A-9K. Parkin Is Phosphorylated by Plk1 at Ser378 and Activated during Mitosis. (A) Cells were synchronized at the G1/S transition by double-thymidine block, and cells were released. Cell were harvested at indicated times and analyzed by immunobloting. (B) Cells were incubated in the absence or presence of nocodazole or CCCP and subjected to immunoblot analysis with the indicated antibodies. (C) Comparison of the sequences surrounding 5378 of Parkin orthologues (SEQ ID NOS 42-47, respectively, in order of appearance). […] Immunoprecipitates were incubated with or without λ phosphatase (PPase) and were analyzed by immunobloting with pS378 antibody. (E) Cells were infected with the indicated constructs, synchronized by nocodazole, and released. Parkin phosphorylation at pS378 was then examined by immunoblot analysis. (F) Cells were transfected with indicated plasmids, and Parkin phosphorylation at pS378 was examined. (G) In vitro kinase assay of Parkin by Plk1. Parkin phosphorylation was visualized by pS378 Parkin antibody. (H) Cells were transfected with the indicated plasmids, and then treated with nocodazole. Cell lysates were then blotted with the indicated antibodies. (I) in vitro ubiquitination of Cyclin B1, Securin and Nek2A by WT Parkin and mutants (S65A, S65D, S378A and S378D). […] Samples were analyzed by immunobloting with anti-Cyclin B1, Securin and Nek2A antibody. […]
(In general: A western blot detects proteins with antibodies after separation by electrophoresis.)

Assay [2] relates to Parkin-deficient lung cancer cell lines. Briefly: Growth inhibition of Parkin-deficient lung cancer cell lines. The format is cell-based, human. Conditions: BI 2536 100 nM or VX-680 50 nM for 72 hours; BI 2536 dose dependent for 3 days (FIG. 13C-13F). The procedure: (§1) FIG. 13A-13F. […] (A and B) Parkin WT and KO MEFs under various condition were analyzed for foci formation assay, number of cell growth, SA-β-gal staining for senescence, colony formation assay. Cells were infected or treated with the indicated constructs or chemical and stained (A, left). Cells were infected with the indicated constructs and stained (B, left). Quantification of (left panel) with stained cell intensity results represent the means (±S.E.) of three independent experiments performed in triplicate (right). *, p<0.05, **, p<0.01 and ***, p<0.001 by one-way ANOVA. […] Quantification of cell numbers results represent the means (±S.E.) of three independent experiments performed in triplicate. ***, p<0.001 by one-way ANOVA.
(§2) All cell lines were sourced from commercial venders. […] Three normal lung (2 fibroblasts, IMR-90 and WI-38; 1 epithelial cells; BEAS-2B) cells, six NSCLCs (4 adenocarcinoma, H1437, H522, H1650 and A549; 2 large cell carcinoma, H460 and H1299), and one SCLC (H196) cells were maintained in Eagle's minimal essential media (EMEM, Gibco-Invitrogen, Grand Island, N.Y.). The human lung fibroblast IMR-90 and WI-38 cells were obtained from the American Type Culture Collection (ATCC, Manassas, Va.), and cells ranging from 29 to 34 in population doubling level (PDL) were used. […]

Assay [3] has as its system Parkin WT or KO MEF cells. Briefly: Sensitivity of Parkin WT or KO MEF cells to BI […], crystal violet staining. The format is cell-based, mouse. As to conditions: FIG. 11F.
Method: (A) Cells were transfected with the indicated plasmids, and mitotic cells were analyzed by immunoblot for the indicated proteins. […] (C) A549 cells stably transfected with doxycycline-inducible constructs encoding WT Parkin or mutant Parkin (S378A and S378D) were treated with doxycycline and subjected to IP and immunoblot as indicated (Top), in vivo ubiquitination (Bottom). (D) Athymic nude mice were injected subcutaneously with A549 cells stably-transfected with vector or doxycycline-inducible Parkin constructs (WT, S378A and S378D). Two days after injection, doxycycline was administered in drinking water. Tumor growth was measured at the indicated times after injection. n=5 for each group. […] Tumor volumes (mm^3) were measured at the indicated times after injection (Bottom). *, p<0.05, **, p<0.01 and ***, p<0.001 by two-way ANOVA. (E) Cells were infected with the indicated constructs and were collected for FACS analysis. […] Results represent the means (±S.E.) of three experiments performed in triplicate. *, p<0.05 and ***, p<0.001 versus Parkin WT MEFs by one-way ANOVA (Right). […] Mean transformed MEFs volumes for Parkin KO are shown. ***, p<0.001 and ****, p<0.0001 versus Parkin WT MEFs by two-way ANOVA.
For colony formation or foci assay, early-passage MEFs (passage 5) cells were plated at low density into 60-mm cell culture plates. […]
Another assay has as its system Parkin KO MEFs. In words: Transformation and escaped senescence of Parkin KO MEFs (foci formation, cell growth, SA-β-gal staining, colony formation). The format is cell-based, mouse. As to conditions: FIG. 13A. The procedure:
FIG. 13A-13F. Transformed and escape senescence events in Parkin KO MEFs were reversed by expressing WT Parkin or downregulation of Plk1 but not C431S or S378A, related to FIGS. 6. (A and B) Parkin WT and KO MEFs under various condition were analyzed for foci formation assay, number of cell growth, SA-β-gal staining for senescence, colony formation assay. Cells were infected or treated with the indicated constructs or chemical and stained (A, left). Cells were infected with the indicated constructs and stained (B, left). Quantification of (left panel) with stained cell intensity results represent the means (±S.E.) of three independent experiments performed in triplicate (right). *, p<0.05, **, p<0.01 and ***, p<0.001 by one-way ANOVA. […] Quantification of cell numbers results represent the means (±S.E.) of three independent experiments performed in triplicate. ***, p<0.001 by one-way ANOVA.
For colony formation or foci assay, early-passage MEFs (passage 5) cells were plated at low density into 60-mm cell culture plates. When sufficient colonies were visible, typically after 2-3 weeks, cells were washed twice in PBS before fixing in ice-cold 70% methanol for 30 minutes, stained by 0.2% Crystal violet for 2-3 hours. The following day cells were rinsed in PBS and air-dried. […]

Assay [4] concerns lung normal fibroblast (WI-38 and IMR 90 cells). In words: Growth inhibition of normal lung fibroblasts. Conditions: WI-38 and IMR 90 cells (FIG. 13E and 13F). The format is cell-based, human. On the procedure: as §1, §2
The test system of assay [5] is Parkin KO MEF tumors in nude mice. Briefly: Mouse xenograft tumor model with Parkin WT or KO MEFs. The format is in vivo. As to conditions: tumors with Parkin-deficiency, i.v., 20 mg/kg twice weekly, four cycles. On the procedure: FIGS. 11A-11H. Parkin Is A Key Mitotic Regulator Functioning as a Tumor Suppressor. (A) Cells were transfected with the indicated plasmids, and mitotic cells were analyzed by immunoblot for the indicated proteins. (B) Schematic of the experiments. (C) A549 cells stably transfected with doxycycline-inducible constructs encoding WT Parkin or mutant Parkin (S378A and S378D) were treated with doxycycline and subjected to IP and immunoblot as indicated (Top), in vivo ubiquitination (Bottom). (D) Athymic nude mice were injected subcutaneously with A549 cells stably-transfected with vector or doxycycline-inducible Parkin constructs (WT, S378A and S378D). […] Tumor growth was measured at the indicated times after injection. n=5 for each group. […] Tumor volumes (mm^3) were measured at the indicated times after injection (Bottom). *, p<0.05, **, p<0.01 and ***, p<0.001 by two-way ANOVA. […]
For MEF xenograft experiments, equal numbers (1×10^6 cells) of Parkin WT or KO MEF cells expressing luciferase mixed at a 1:1 dilution with matrigel (Collaborative Research) were implanted in the backs of athymic nude mice. Tumor growth was monitored using calipers and visualized with a bioluminescence-based IVIS system (Caliper LifeScience). […] Tumour growth was measured using a vernier caliper at the indicated times after injection, and the tumor volume was calculated as length×width×height. […]

Assay [6] relates to binding of Parkin to Cdc20. In words: Parkin-Cdc20 binding in cells, IP-immunoblot. In kind it is cell-based. As to conditions: cells treated with chemical, with or without nocodazole (FIG. 9J).

The record followed here is patent US20200323860A1, “METHODS AND MATERIALS FOR TREATING CANCER” (Mayo Foundation for Medical Education and Research, priority 2015, published 2020).

On to `N#CC(C#N)=NNc1cccc(Cl)c1` [CCCP, carbonyl cyanide m-chlorophenylhydrazone], for which the “Ser 378 phosphorylation of Parkin” value in assay [1] (cells incubated with CCCP (FIG. 9B)) is given as “did not affect Ser 378 phosphorylation”.
On to `CC[C@@H]1C(=O)N(C)c2cnc(Nc3ccc(C(=O)NC4CCN(C)CC4)cc3OC)nc2N1C1CCCC1` [BI 2536, (R)-4-(8-cyclopentyl-7-ethyl-5-methyl-6-oxo-5,6,7,8-tetrahydropteridin-2-ylamino)-3-methoxy-N-(1-methylpiperidin-4-yl)benzamide], for which the “sensitivity (growth inhibition) of Parkin-deficient lung cancer cell lines” value in assay [2] is recorded as “significantly sensitive”. For the same molecule, the “transformation of Parkin KO MEFs” value in assay [3] is reported as “inhibited transformation of Parkin KO MEFs”. The “escaped senescence and transformation induced by Parkin depletion” value in the assay with Parkin KO MEFs is listed as “transformation was abolished”. In addition, in assay [4], the “sensitivity (growth inhibition) of lung normal fibroblasts” value is listed as “but not lung normal fibroblasts”. In addition, the “Parkin phosphorylation at Ser378” value in assay [1] (nocodazole-arrested mitotic cells, with Plk1 inhibitor (FIG. 9D)) is given as “blocked Parkin phosphorylation at Ser378”. In addition, the “tumor inhibition in vivo” value in assay [5] is on record as “excellent tumor inhibition”. In assay [6], the “binding of Parkin to Cdc20” value was “decreased binding of Parkin to Cdc20”.
For the molecule `Cc1cc(Nc2cc(N3CCN(C)CC3)nc(Sc3ccc(NC(=O)C4CC4)cc3)n2)n[nH]1` [VX 680, N-(4-(4-(5-methyl-1H-pyrazol-3-ylamino)-6-(4-methylpiperazin-1-yl)pyrimidin-2-ylthio)phenyl)-cyclopropanecarboxamide], the “sensitivity (growth inhibition) of Parkin-deficient lung cancer cell lines” value in assay [2] is given as “significantly sensitive”. For the same molecule, the “sensitivity (growth inhibition) of lung normal fibroblasts” value in assay [4] was “but not lung normal fibroblasts”.
